Measured values: US11752125B2, “Anti-neuroinflammatory and protective compounds in Achillea fragrantissima” (THE STATE OF ISRAEL MINISTRY OF AGRICULTURE & RURAL …, priority 2013, dated 2023)

Assays:
ERK 1/2 = test: H2O2-induced ERK 1/2 phosphorylation in astrocytes (ELISA); format: cell-based, rat; details: H2O2 175 μM 40 min; for effect on H2O2-induced phosphorylation of ERK1/2: astrocytes preincubated 2 h
Experimental: Astrocytes were treated with TTF 2 h before the addition of H2O2. Cells were lysed 40 minutes after the addition of H2O2 in lysis buffer supplied by PathScan sandwich ELISA kit (Cell Signaling TECHNOLOGY) according to the manufacturer's protocol. Protein concentrations in cell lysates were determined by Bradford reagent (Bio-Rad, Hercules, Calif.), and equal amounts of proteins were subjected to ELISA. To measure the amount of total and phosphoSAPK/JNK in cell lysates of astrocytes, ELISA was performed according to the manufacturer's protocol using the PathScan total SAPK/JNK sandwich ELISA kit (Cell Signaling TECHNOLOGY) and the PathScan phospho-SAPK/JNK (Thr183/Tyr185) sandwich ELISA kit (Cell Signaling TECHNOLOGY), respectively. To measure the amount of total and phospho-ERK 1/2 (i.e. phospho-p44/42 MAPK) in cell lysates of astrocytes, ELISA was performed according to the manufacturer's protocol using the PathScan total p44/42 MAPK (ERK 1/2) sandwich ELISA kit (Cell Signaling TECHNOLOGY) and the PathScan phospho-p44/42 MAPK (Thr202/Tyr204) sandwich ELISA kit (Cell Signaling TECHNOLOGY), respectively. To measure the amount of total and phospho-MEK1 in cell lysates of astrocytes, ELISA was performed according to the manufacturer's protocol using the PathScan total MEK1 sandwich ELISA kit (Cell Signaling TECHNOLOGY) and the PathScan phospho-MEK1 (Ser217/221) sandwich ELISA kit (Cell Signaling TECHNOLOGY), respectively. […] The optical density was determined at 450 nm using a microplate reader.
1. […] Determine the optical density at 450 nm using a microplate reader.
Astrocytes were treated with 175 μM of H2O2 for 40 min following preincubation with TTF for 2 h. The levels of phosphorylated and total SAPK/JNK (FIG. 3A), MEK1 (FIG. 3B) and ERK 1/2 (FIG. 3C) were measured by ELISA. […]

MEK1 = test: Aβ25-35-induced MEK1 phosphorylation in N2a cells (ELISA); format: cell-based; details: concomitant treatment 30-40 min
Experimental: 7. Measure the amount of total and phosphorylated MEK1 in cell lysates of N2a cells, by ELISA using the PathScan total MEK1 sandwich ELISA kit (Cell Signaling TECHNOLOGY) or the PathScan phosoho-MEK1 (Ser217/221) sandwich ELISA kit (Cell Signaling TECHNOLOGY), respectively. 8. Determine the optical density at 450 nm using a microplate reader.
N2a cells were treated concomitantly with Aβ25-35 and TTF for 30 min. Cells were extracted and the levels of phosphorylated or total MEK1 were determined by specific ELISA kits. The results are the mean±SEM of two different experiments for phosphoMEK1 (n=4) (see FIG. 12A) and of one experiment for total MEK1 (n=2) (see FIG. 12B).
N2a cells were treated concomitantly with Aβ25-35 and AcA for 40 min. Cells were extracted and the levels of phosphorylated or total MEK1 were determined by specific ELISA kits. The results are the mean±SEM of one experiment (n=2).
N2a cells were treated concomitantly with A25-35 and memantine for 30 min. Cells were extracted and the levels of phosphorylated or total MEK1 were determined by specific ELISA kits. The results are the mean±SEM of one experiment (n=2).

Row | Compound | effect on H2O2-induced phosphorylation of ERK1/2 (ERK 1/2) | effect on Aβ25-35-induced phosphorylation of MEK1 (MEK1) | inhibition of H2O2-induced phosphorylation of ERK 1/2 (ERK 1/2; astrocytes pretreated 2 h, total ERK 1/2 not affected) [%]
1 | C=C1CCC2=C(CO)C(=O)O[C@H]2/C=C(\C)[C@H](OC(C)=O)CC1=O [achillolide A] | inhibitory effect | does not affect | 
2 | COc1cc(-c2oc3cc(OC)c(OC)c(O)c3c(=O)c2O)ccc1O [TTF, 3,5,4′-trihydroxy-6,7,3′-trimethoxyflavone] |  | significantly inhibited | 30
3 | CC12CC3CC(C)(C1)CC(N)(C3)C2 [memantine, reference compound] | inhibitory effect | down-regulates | 
